Reference: ChEMBL document CHEMBL1201862, “PubChem BioAssay data set” (2004)
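96-well plates; 48 h exposure; 5 concentrations. Endpoints by linear interpolation between flanking doses. Not reached: highest tested concentration assigned. The concentration for 50% growth inhibition is given as GI50.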 Calls of active or inactive are those of the source. Cut-off read from the data, not from the text of the source: active = GI50 up to about 1.1 µM and inactive = higher.

Experiments:
Test in all cases: growth of human tumour cells (NCI), 48 h
[1] = system: CAKI-1
[2] = system: HL-60
[3] = system: A498
[4] = system: HCT-116
[5] = system: MDA-N
[6] = system: HOP-62
[7] = system: SK-MEL-2
[8] = system: M14
[9] = system: 786-0
[10] = system: SNB-75
[11] = system: IGROV-1
[12] = system: K562
[13] = system: HCC 2998
[14] = system: OVCAR-3
[15] = system: SF-539
[16] = system: HT-29
[17] = system: NCI-H460
[18] = system: TK-10
[19] = system: ACHN

Measured: GI50

CC(C)CCCC(C)[C@H]1CC[C@H]2[C@@H]3CC[C@H]4C[C@@H](CCC=C(c5cc(Cl)c(O)c(C(=O)OC(C)C)c5)c5cc(Cl)c(O)c(C(=O)OC(C)C)c5)CC[C@]4(C)[C@H]3CC[C@]12C (stereo partly specified)
inactive: [1] > 50 µM | [2] > 50 µM | [3] > 50 µM | [4] > 50 µM | [5] > 50 µM | [6] > 50 µM | [7] > 50 µM | [8] > 50 µM | [9] > 50 µM | [10] > 50 µM | [11] > 50 µM | [12] > 50 µM | [13] > 50 µM | [14] > 50 µM | [15] > 50 µM | [16] > 50 µM

c1ccc2c(c1)nc1n2CNC1
inactive: [17] 54.6 µM | [1] > 100 µM | [18] > 100 µM | [2] > 100 µM | [3] > 100 µM | [4] > 100 µM | [5] > 100 µM | [6] > 100 µM | [7] > 100 µM | [8] > 100 µM | [9] > 100 µM | [10] > 100 µM | [19] > 100 µM | [11] > 100 µM | [12] > 100 µM | [13] > 100 µM | [14] > 100 µM | [15] > 100 µM | [16] > 100 µM

Cc1nn(C(=O)c2ccccc2O)c2c1C(c1ccc(O)cc1)SC(=N)N2 (stereo unspecified)
active: [17] 0.359 µM | [10] 0.74 µM | [19] 0.951 µM | [12] 0.955 µM
inactive: [1] > 2.32 µM | [18] > 2.52 µM | [2] > 2.03 µM | [3] 3.06 µM | [4] 1.49 µM | [5] 1.67 µM | [7] > 2.65 µM | [8] > 2.86 µM | [9] > 2.56 µM | [11] 2.08 µM | [13] > 8.91 µM | [14] > 2.66 µM | [15] 1.36 µM | [16] > 6.9 µM

N#Cc1nc(COCCOCc2ccccc2)oc1N
inactive: [17] > 100 µM | [1] > 100 µM | [18] > 100 µM | [2] > 100 µM | [3] > 100 µM | [4] > 100 µM | [5] > 100 µM | [6] > 100 µM | [7] > 100 µM | [8] > 100 µM | [9] > 100 µM | [10] > 100 µM | [19] > 100 µM | [11] > 100 µM | [12] > 100 µM | [13] > 100 µM | [14] > 100 µM | [15] > 100 µM | [16] > 100 µM

CC(C)(C)OC(=O)[C@@H]1CCC(=O)N1C1(c2ccccc2)c2ccccc2-c2ccccc21
inactive: [17] 30.5 µM | [1] 88.5 µM | [18] > 100 µM | [2] 37.2 µM | [3] 64.7 µM | [4] 37.8 µM | [5] 29.4 µM | [6] 58.5 µM | [7] 26.2 µM | [8] 50.4 µM | [9] 38.8 µM | [10] 25.9 µM | [19] 26.9 µM | [11] 56.4 µM | [12] 41 µM | [13] 52.8 µM | [14] 27.4 µM | [15] 17.1 µM | [16] 23.7 µM

COc1ccc(C(CC2(c3ccc(OC)cc3)SCCCS2)NC(C)=O)cc1 (stereo unspecified)
inactive: [17] 40.7 µM | [1] 72.3 µM | [18] 39.8 µM | [2] 18.7 µM | [3] 90.6 µM | [4] 56.1 µM | [5] 61 µM | [6] 47.1 µM | [7] 41.3 µM | [8] 94 µM | [9] > 100 µM | [10] 32.4 µM | [19] 63 µM | [11] > 100 µM | [12] 35.4 µM | [13] 42.6 µM | [14] 45.6 µM | [15] > 100 µM | [16] 65.2 µM

Nc1nc2c(c(-c3ccccc3Cl)n1)COC/C2=C\c1ccccc1Cl
inactive: [17] 18.6 µM | [1] 16.3 µM | [18] 17.6 µM | [2] 3.08 µM | [3] 16.4 µM | [4] 15.8 µM | [5] 10.9 µM | [6] 18.1 µM | [7] 16.9 µM | [8] 15.7 µM | [9] 17.2 µM | [10] 15.9 µM | [19] 17.9 µM | [11] 15.8 µM | [12] 12.2 µM | [13] 19.5 µM | [14] 17.4 µM | [15] 18.2 µM

Cc1c(-c2ccccc2)c(C#N)c2nnn(-c3ccc([N+](=O)[O-])cc3)c(=O)n12
inactive: [17] 22.5 µM | [1] 29.9 µM | [18] 28.1 µM | [2] 1.92 µM | [3] 19.9 µM | [4] 24.5 µM | [5] 40.6 µM | [6] 13.6 µM | [7] 8.91 µM | [9] 5.14 µM | [10] 14.5 µM | [19] 22.2 µM | [11] 10.2 µM | [12] 20.5 µM | [13] 26.6 µM | [14] 15.3 µM | [15] 10.1 µM | [16] 8.99 µM

Nc1nc2c(c(-c3ccc(F)cc3)n1)COC/C2=C\c1ccc(F)cc1
inactive: [17] 15.5 µM | [1] > 100 µM | [18] 30.1 µM | [2] 39.1 µM | [3] > 100 µM | [5] > 100 µM | [6] 34.6 µM | [7] > 100 µM | [8] > 100 µM | [10] 20.5 µM | [19] 55.6 µM | [11] 40.6 µM | [12] 35.6 µM | [13] 30.8 µM | [14] 51.4 µM | [15] > 100 µM | [16] 15.8 µM

O=P1(N(CCCl)CCCl)Oc2ccc(Cl)cc2Sc2c(ccc(Cl)c2Cl)O1 (stereo unspecified)
inactive: [17] 4.79 µM | [1] 15.2 µM | [18] 9.18 µM | [2] 4.1 µM | [3] 22.2 µM | [4] 4.97 µM | [5] 7.91 µM | [6] 16 µM | [7] 9.68 µM | [8] 17.8 µM | [9] 8.13 µM | [10] 18.8 µM | [19] 7.41 µM | [12] 3.47 µM | [13] 16.5 µM | [14] 4.95 µM | [15] 23.3 µM | [16] 7.29 µM

CCOP(=O)(OCC)C(F)(F)Cc1cnc(C)c2c1COC(C)(C)O2
inactive: [17] > 10 µM | [1] > 10 µM | [18] > 10 µM | [2] > 10 µM | [3] > 10 µM | [4] > 10 µM | [5] > 10 µM | [6] > 10 µM | [7] > 10 µM | [8] > 10 µM | [9] > 10 µM | [10] > 10 µM | [19] > 10 µM | [11] > 10 µM | [12] > 10 µM | [13] > 10 µM | [14] > 10 µM | [15] > 10 µM | [16] > 10 µM

CC(=O)N1C(C(=O)NC2CCCCC2)CSC1c1ccccc1 (stereo unspecified)
inactive: [17] > 100 µM | [1] > 100 µM | [18] > 100 µM | [2] > 100 µM | [3] > 100 µM | [4] > 100 µM | [5] > 100 µM | [6] > 100 µM | [7] > 100 µM | [8] > 100 µM | [9] > 100 µM | [10] > 100 µM | [19] > 100 µM | [11] > 100 µM | [12] > 100 µM | [13] > 100 µM | [14] > 100 µM | [15] > 100 µM | [16] > 100 µM

Cc1nc2ccc(Br)cc2c(=O)n1-c1ccc(N)cc1
inactive: [17] > 100 µM | [1] > 100 µM | [18] > 100 µM | [2] > 100 µM | [3] > 100 µM | [4] > 100 µM | [5] > 100 µM | [6] > 100 µM | [7] > 100 µM | [8] > 100 µM | [9] > 100 µM | [10] 17.2 µM | [19] > 100 µM | [11] > 100 µM | [12] > 100 µM | [13] > 100 µM | [14] > 100 µM | [15] > 100 µM | [16] > 100 µM

Cc1ccc(NC(=O)c2cc(S(=O)(=O)Nc3nc4cccnc4[nH]3)c(SSc3cc(Cl)c(C(=O)Nc4ccc(C)cc4)cc3S(=O)(=O)Nc3nc4cccnc4[nH]3)cc2Cl)cc1
inactive: [17] > 100 µM | [1] > 100 µM | [18] > 100 µM | [2] > 100 µM | [3] > 100 µM | [4] > 100 µM | [5] > 100 µM | [6] > 100 µM | [7] > 100 µM | [8] > 100 µM | [9] > 100 µM | [10] > 100 µM | [19] > 100 µM | [11] > 100 µM | [12] > 100 µM | [13] > 100 µM | [14] > 100 µM | [15] > 100 µM | [16] > 100 µM

CCN(C(=O)N[C@H](C(=O)N[C@@H](C)C(=O)OC)C(C)C)c1ccccc1
inactive: [17] 24 µM | [1] > 100 µM | [18] 35.7 µM | [2] 23.4 µM | [3] 46.3 µM | [4] 22.5 µM | [5] 34.2 µM | [6] > 100 µM | [7] 28.8 µM | [8] 31 µM | [9] 27.3 µM | [10] 32.1 µM | [19] 45.2 µM | [11] 28.1 µM | [12] 24 µM | [13] 17.4 µM | [14] 51.2 µM | [15] 19.2 µM | [16] 38.8 µM
